Measured values: the supplement of paper PMC10307832

Tests used:
Assay in all cases: relative viability (nuclei count vs DMSO), 5 days (fraction); higher = more cells survive
MK-8033 + Bortezomib = compound: Cn1cc(-c2cnc3ccc4ccc(CS(=O)(=O)NCc5ccccn5)cc4c(=O)c3c2)cn1 [MK-8033] + CC(C)C[C@H](NC(=O)[C@H](Cc1ccccc1)NC(=O)c1cnccn1)B(O)O [Bortezomib] (partner 0.002 µM)
Procedure, shortened: (§1)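 The day after seeding in 1536-well plates, lung cancer cell lines were treated by pin tool with a single drug, or with a fixed anchor-drug dose together with five library-drug doses (not always all listed) in √10 steps. After 5 days, a combined fix-and-stain solution (final 0.05% Triton X-100, 1% formaldehyde, 1 ug/ml Hoechst) was added. Nuclei counted on 4× images gave relative viability as treated counts over vehicle counts, reported as the median of duplicate plates.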

Irinotecan + Pemetrexed = compound: CCc1c2c(nc3ccc(OC(=O)N4CCC(N5CCCCC5)CC4)cc13)-c1cc3c(c(=O)n1C2)COC(=O)[C@]3(O)CC [Irinotecan] + Nc1nc2[nH]cc(CCc3ccc(C(=O)N[C@@H](CCC(=O)O)C(=O)O)cc3)c2c(=O)[nH]1 [Pemetrexed] (partner 0.2 µM)
Procedure, shortened: as §1

MK-8033 + Tozasertib = compound: Cn1cc(-c2cnc3ccc4ccc(CS(=O)(=O)NCc5ccccn5)cc4c(=O)c3c2)cn1 [MK-8033] + Cc1cc(Nc2cc(N3CCN(C)CC3)nc(Sc3ccc(NC(=O)C4CC4)cc3)n2)n[nH]1 [Tozasertib] (partner 0.1 µM)
Procedure, shortened: as §1

MK-8033 + Lapatinib = compound: Cn1cc(-c2cnc3ccc4ccc(CS(=O)(=O)NCc5ccccn5)cc4c(=O)c3c2)cn1 [MK-8033] + CS(=O)(=O)CCNCc1ccc(-c2ccc3ncnc(Nc4ccc(OCc5cccc(F)c5)c(Cl)c4)c3c2)o1 [Lapatinib] (partner 2 µM)
Procedure, shortened: as §1

Cell Line | relative viability (MK-8033 + Bortezomib; first compound 0.02 µM) | relative viability (MK-8033 + Bortezomib; first compound 0.06325 µM) | relative viability (MK-8033 + Bortezomib; first compound 0.2 µM) | relative viability (MK-8033 + Bortezomib; first compound 0.6325 µM) | relative viability (MK-8033 + Bortezomib; first compound 2 µM) | relative viability (Irinotecan + Pemetrexed; first compound 0.6325 µM) | relative viability (Irinotecan + Pemetrexed; first compound 2 µM) | relative viability (Irinotecan + Pemetrexed; first compound 6.325 µM) | relative viability (Irinotecan + Pemetrexed; first compound 20 µM) | relative viability (MK-8033 + Tozasertib; first compound 0.02 µM) | relative viability (MK-8033 + Tozasertib; first compound 0.06325 µM) | relative viability (MK-8033 + Tozasertib; first compound 0.2 µM) | relative viability (MK-8033 + Tozasertib; first compound 0.6325 µM) | relative viability (MK-8033 + Tozasertib; first compound 2 µM) | relative viability (MK-8033 + Lapatinib; first compound 0.02 µM) | relative viability (MK-8033 + Lapatinib; first compound 0.06325 µM) | relative viability (MK-8033 + Lapatinib; first compound 0.2 µM) | relative viability (MK-8033 + Lapatinib; first compound 0.6325 µM) | relative viability (MK-8033 + Lapatinib; first compound 2 µM)
NCI-H650 | 0.858 | 0.745 | 0.737 | 0.794 | 0.886 | 0.749 | 0.838 | 0.229 | 0.201 | 0.701 | 0.598 | 0.706 | 0.827 | 0.679 | 0.759 | 0.966 | 0.838 | 0.845 | 0.921
NCI-H2023 | 1.06 | 0.89 | 0.852 | 0.96 | 0.778 | 0.256 | 0.2 | 0.156 | 0.0599 | 0.374 | 0.273 | 0.251 | 0.221 | 0.122 | 0.923 | 0.701 | 0.624 | 0.59 | 0.523
NCI-H1563 | 0.951 | 0.823 | 0.857 | 0.833 | 0.838 | 0.649 | 0.777 | 0.756 | 0.671 | – | – | – | – | – | 0.965 | 0.833 | 0.966 | 0.864 | 0.886
LCLC-103H | 1.04 | 0.986 | 1.18 | 1.02 | 1.12 | 0.477 | 0.471 | 0.508 | 0.516 | 0.489 | 0.556 | 0.438 | 0.55 | 0.461 | – | – | – | – | –
HCC-15 | 1.04 | 1.01 | 0.99 | 1.05 | 0.952 | 0.18 | 0.188 | 0.207 | 0.189 | 0.498 | 0.3 | 0.35 | 0.427 | 0.352 | 0.849 | 0.801 | 0.785 | 0.805 | 0.856
NCI-H838 | 0.794 | 0.721 | 0.87 | 0.79 | 0.706 | 0.232 | 0.25 | 0.24 | 0.25 | 0.297 | 0.272 | 0.281 | 0.266 | 0.236 | 0.902 | 0.844 | 0.925 | 0.927 | 0.911
NCI-H2009 | 1.03 | 1.09 | 0.954 | 0.95 | 0.984 | 0.783 | 0.439 | 0.211 | 0.121 | 0.776 | 0.703 | 0.694 | 0.707 | 0.737 | 0.959 | 0.887 | 0.929 | 1.13 | 0.973
NCI-H2228 | 1.04 | 0.932 | 1.08 | 0.998 | 1.06 | 0.363 | 0.36 | 0.336 | 0.442 | 0.199 | 0.214 | 0.168 | 0.253 | 0.214 | 1.34 | 1.08 | 0.848 | 1 | 0.98
NCI-H522 | – | – | – | – | – | 0.966 | 0.824 | 0.566 | 0.498 | 0.606 | 0.477 | 0.53 | 0.496 | 0.599 | – | – | – | – | –
NCI-H1703 | 0.401 | 0.302 | 0.268 | 0.307 | 0.298 | – | – | – | – | – | – | – | – | – | 1.04 | 1.04 | 0.99 | 0.912 | 1.05
